Reference: patent publication US8486945B2, “Heterocyclic inhibitors of an Hh-signal cascade, medicinal compositions based thereon and methods for treating diseases caused by the aberrant activity of an Hh-signal system” (priority 2007, dated 2013)
Where two headings read alike, the source gives them in different places.

What was measured:
[1] = Pharmacokinetic investigation in mice (PO and IP); type: in vivo, mice of BALB/c line; conditions: BALB/c, mouse, plasma, read-out: % F (PO/IV)
[2] = Pharmacokinetic investigation in mice (PO and IP); type: in vivo, mice of BALB/c line; conditions: BALB/c, mouse, plasma; for half-life: read-out: T½
Protocol: Pharmacokinetic investigations were carried out on mice of BALB/c line. All animals were divided into three groups in a random manner: two experimental groups were used for pharmacokinetic analyses at peroral (PO) and intraperitoneal (IP) ways of substance introduction in various doses, and the control group for getting intact blood plasma.
Blood samples were taken by decapitation of animals before introduction of medicament (control samples), and by decapitation in 5, 15, 30, 60, 120 and 240 minutes after introduction of medicament. Three mice were used for each time interval point.
Analysis of samples comprising compounds of the general formulas I-VIII was carried out by Chromato-Mass-Spectrometry method. The data were analysed by means of software package WinNonLin (Pharsight, CIIIA).
Oral bioavailability % F of compounds of the general formulas I-VIII was calculated on the basis of experimental results according to the following equation: % F=[AUC0→t,(PO)/AUC0→t,(IP)]×100%.

Smo receptors = biological target: T1, Smo receptors (Homo sapiens, UniProt Q99835); test: Displacement of bodipy-cyclopamine from Smo receptors in Smo-HEK cells; type: binding; conditions: half-maximal displacement of bodipy-cyclopamine
T1 construct: expressed in transfected cells; host or cells: HEK cells (Smo-HEK)
Protocol: Binding parameters to Smo receptors for some of compounds of the general formulas I-VIII are presented in table 11 as the values of half-maximal displacement of cyclopamine labelled with fluorescent dye (bodipy-cyclopamine). The tests were carried out for Smo-HEK cells, comprising artificially expressed protein Smo.

[3] = Maximum tolerated dose, intraperitoneal once daily for 5 days; conditions: mouse, in vivo, ip, male SHK mice
Protocol: Maximum tolerated dose of compounds was determined in tests on male mice of SHK line by intraperitoneal once daily introduction of the compounds in doses from 30 to 300 mg/kg during 5 days. 8 Mice were used in each group. Weight of mice and also animals' mortality were registered. […] According to the classification of chemical compounds toxicity the investigated compounds may be referred to low-toxic substances.

[4] = system: human's pancreatic carcinoma Panc1; test: Antitumour activity in Panc1 xenograft mice model; type: in vivo, mice Balb-c/nude
Protocol: Example of antitumour activity of compound III-1029 towards human's pancreatic carcinoma model Panc1, implanted to immunodeficient transgenic (naked) mice Balb-c/nude, is presented in FIG. 3. Mice of 8 weeks age which were implanted with pancreatic carcinoma by injection of 4×10^6 tumour cells were used in the experiments. Introduction of tested compound (peroral 50 mg/kg, daily during 14 days) was started in 7 days after transplantation of tumour (an average size of tumour was 30-60 mm^3). As a result of the tests it was shown that under the said way of introduction compound III-1029 suppresses tumour growth on 67% in comparison with the control group (mice with implanted tumour not treated with compound III-1029).
Example of antitumour activity of compounds III-1017 and III-1011 towards human's pancreatic carcinoma Panc1, implanted to immunodeficient transgenic (naked) mice Balb-c/nude, is presented in FIG. 4. Mice of 8 weeks age which were implanted with pancreatic carcinoma by injection of 4×10^7 tumour cells were used in the experiments. Introduction of tested compound (intraperitoneally […], daily during 21 days) was started in 8 days after transplantation of tumour (an average size of tumour is 60-140 mm^3). As a result of the tests it was shown that under the said way of introduction compounds III-1017 and III-1011 suppress tumour growth on 27 and 46% in comparison with the control group (mice with implanted tumour not treated with the tested compounds).

Hh-signalling cascade = test: Inhibition of SHh-induced alkaline phosphatase in C3H10T1/2 cells (Hh-signalling cascade inhibition); type: cell-based; conditions: Mus musculus, C3H 10T1/2, half maximal inhibition of SHh (0.3 μg/ml) stimulation of cell alkaline phosphatase
Method in brief: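 C3H10T1/2 cells preincubated 30 min with compound (screen at 10 μM; IC50 from triplicate dilution series), then stimulated with 0.3 μg/ml recombinant SHh for 3 days at 37 °C. Alkaline phosphatase measured by CSPD luminescence in 0.2% Triton-X100 lysates; IC50 = half-maximal inhibition of SHh-induced activity.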

[5] = system: transcription factor Gli1; test: Suppression of transcription factor Gli1 induction in Panc1 cell culture; type: cell-based, human; conditions: 20 mkM, 72 hours, Panc1 cells
Protocol: Examples of suppression of the transcription factor Gli1 induction in human's tumor cell culture Panc1 by compounds of the general formulas I-VIII are presented in FIG. 2. […] This effect could be enhanced at combined action of the tested compound and kinas inhibitor (oncolitic Iressa). For caning out the experiments the tumour cell culture Panc1 was cultivated for 72 hours in the presence of 20 mkM of tested compounds.
Measurements of expression level Gli1 were carried out by determination of HGli mRNA amount according to the method [Lauth M., Bergstrom A., Shimokawa T., Toftgard R. Inhibition of GLI-mediated transcription and tumor cell growth by small-molecule antagonists. PNAS. 2007, 104(20): 8455-8460].

[6] = intraperitoneally 100 m mg/kg, daily during 21 days

T1 sequence (Q99835 28-787): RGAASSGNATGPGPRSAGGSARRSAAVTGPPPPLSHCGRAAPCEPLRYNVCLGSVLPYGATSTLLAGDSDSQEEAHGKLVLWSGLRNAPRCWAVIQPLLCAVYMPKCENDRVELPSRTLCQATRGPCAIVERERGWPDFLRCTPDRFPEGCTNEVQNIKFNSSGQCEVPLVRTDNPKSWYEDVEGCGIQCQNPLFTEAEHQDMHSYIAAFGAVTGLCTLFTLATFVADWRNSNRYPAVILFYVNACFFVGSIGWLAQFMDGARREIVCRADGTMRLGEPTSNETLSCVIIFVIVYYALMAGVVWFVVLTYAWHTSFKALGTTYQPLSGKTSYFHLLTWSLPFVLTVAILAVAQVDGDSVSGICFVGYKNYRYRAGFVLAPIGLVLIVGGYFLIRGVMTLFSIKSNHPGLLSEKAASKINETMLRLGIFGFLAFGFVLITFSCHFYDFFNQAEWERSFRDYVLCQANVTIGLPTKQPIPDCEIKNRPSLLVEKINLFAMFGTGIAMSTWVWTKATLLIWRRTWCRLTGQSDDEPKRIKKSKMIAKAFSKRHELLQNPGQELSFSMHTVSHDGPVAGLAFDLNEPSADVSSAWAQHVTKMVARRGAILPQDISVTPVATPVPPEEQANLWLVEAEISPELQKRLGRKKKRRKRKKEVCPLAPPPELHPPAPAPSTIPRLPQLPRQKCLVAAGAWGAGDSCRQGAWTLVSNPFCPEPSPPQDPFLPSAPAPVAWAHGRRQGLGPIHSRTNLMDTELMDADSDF

`Cc1cccn2cc(-c3ccc(NC(=O)c4ccccc4F)cc3)nc12` [III-1011, 2-Fluoro-N-[4-(8-methylimidazo[1,2-a]pyridin-2-yl)phenyl]benzamide] gave a bioavailability [1] of 64%, a Cmax ([2]; IP, 5 mg/Kg) of 1040 ng/mL and a half-life ([2]; IP, 5 mg/Kg) of 44 min. The Cmax ([2]; PO, 5 mg/Kg) was 564 ng/mL, the half-life ([2]; PO, 5 mg/Kg) was 58 min and the IC50 (Smo receptors) was 93 nM. For the same molecule, the MTD at 5 days [3] was > 200 mg/kg and the “Suppression of tumour growth in comparison with the control group” value (“Suppression of tumour growth” for short) [4, 6] was 46%.

`Cc1ccn2cc(-c3cccc(NC(=O)c4sc(-c5ccccc5)nc4C)c3)nc2c1` [III-1017, 4-Methyl-2-phenylthiazol-5-carboxylic acid [3-(7-methylimidazo[1,2-a]pyridin-2-yl)phenyl]amide] showed a bioavailability [1] of 19%, a Cmax ([2]; IP, 5 mg/Kg) of 357 ng/mL and a half-life ([2]; IP, 5 mg/Kg) of 67 min. For the same molecule, the Cmax ([2]; PO, 5 mg/Kg) was 398 ng/mL, the half-life ([2]; PO, 5 mg/Kg) was 55 min and the MTD at 5 days [3] was > 200 mg/kg. The IC50 (Hh-signalling cascade) was < 500 nM and the “Suppression of tumour growth” value [4, 6] was 27%.

In the case of `Cc1cccn2cc(-c3ccc(NC(=O)c4ccccc4Br)cc3)nc12` [III-1029, N-[4-(8-Methylimidazo[1,2-a]pyridin-2-yl)phenyl]-2-bromobenzamide], the bioavailability [1] is reported as 75%, the half-life ([2]; PO, dose not given) is reported as 59 min and the IC50 (Smo receptors) is reported as 259 nM. The MTD at 5 days [3] was > 200 mg/kg, the IC50 (Hh-signalling cascade) was < 500 nM and the “Suppression of tumour growth” value ([4]; peroral 50 mg/kg, daily during 14 days) was 67%. The “Suppression of Gli1 expression (HGli mRNA)” value [5] was “block effectively Hh-signalling cascade”.
